Laboratory results as given in patent EP4435060A1, “SILICON PHTHALOCYANINE AND TRIBENZOPHTHALOCYANINE DYES AND THEIR USE IN DIAGNOSIS AND THERAPY” (Albert-Ludwigs-Universität Freiburg, priority 2023, dated 2024).

How the values were obtained:
[1] = UV/VIS absorption spectra; type: physicochemical; conditions: for λmax (UV/VIS spectrum): in H2O, 5 - 16 µM (Figure 13) or 4 - 15 µM (Figure 14); for bathochromic shift compared to the absorption maximum of Li-Cor-A: versus λmax = 680 nm
prostate cancer cells = test: PIT controls on the prostate cancer cell lines of Figure 16E (free dye; conjugate without irradiation); type: cell-based, human; conditions: equimolar concentrations of free dye, 32 J/cm^2 red light, in words
Method: 2.5*10^5 cells were seeded per well in 35 mm cell culture dishes (Thermo Fischer Scientific) and cultivated for 24 h in the incubator (37°C, 5% CO2). On the next day, cell culture medium was removed and fresh medium containing the appropriate treatment (medium, 10 µg/ml antibody, 10 µg/ml conjugate or the equimolar amount of free dye) was administered to the cells. After incubation (37°C, 5% CO2, 24h), the cells were washed with 1x PBS and irradiated with a red light-emitting diode (LED), which emits light at λmax = 680 nm (L690-66-60, Marubeni, Tokyo, Japan) or a LED, which emits light at (λmax = 780 nm) (L780-66-60-550) at various mean irradiation doses. Power densities were quantified with an optical power meter (PM 100, Thorlabs, Newton, USA). After 24h, cell viability was analyzed using the vital dye erythrosine b (Logos Biosystems, Gyeonggi-do, South Korea) and the Neubauer Counting Chamber. Significance of the data was calculated with the Student's t test (unpaired, parametric with Welch's […]) using the GraphPad Prism 7 software (GraphPad Software Inc., San Diego, USA).

Substance	λalmost max (UV/VIS spectrum) ([1]; 4 - 15 µM in H2O, pathlength = 1 cm) [nm]	λmax (UV/VIS spectrum) ([1]; pathlength = 1 cm) [nm]	absorption maximum λmax in the UV/VIS spectrum [1] [nm]	bathochromic shift compared to the absorption maximum of Li-Cor-A [1] [nm]	viability of irradiated cells incubated with free dye (prostate cancer cells)
2-(4-Iodophenoxy)-29,31-bis[(3,4,5-tris{[1-(sodium 3-sulfonatopropyl)-1,2,3-triazol-4-yl]methoxy}phenyl)methoxy]silanediyl-29H,31H-silicon tribenzophthalocyanine [compound 31]	765	795	–	–	–
2-(4-[4-({[7-oxo-7-(perfluorophenoxy) heptyl]ca rbamoyl} oxy) but-1-yn-1-yl]phenoxy)-29,31-bis[(3,4,5-tris{[1-(sodium 3-sulfonatopropyl)-1,2,3-triazol-4-yl]methoxy}phenyl)methoxy]silanediyl-29H,31H-silicon phthalocyanine [WB692-LB2]	–	–	692	12	–
2-({[({4-[(2,5-Dihydro-1H-2,5-dioxopyrrol-1-yl)oxy]-4-oxobut-1-yl}amino)-carbonyloxy]but-1-ynyl}phenoxy)-29,31-bis[(3,4,5-tris{[1-(sodium 3-sulfonatopropyl)-1,2,3-tri-azol-4-yl]methoxy}phenyl)methoxy]silanediyl-29H,31H-silicon tribenzophthalocyanine [WB795-LB1]	–	–	795	115	–
2-({[({6-[(2,5-Dihydro-1H-2,5-dioxopyrrol-1-yl)oxy]-6-oxohex-1-yl}amino)-carbonyloxy]but-1-ynyl}phenoxy)-29,31-bis[(3,4,5-tris{[1-(sodium 3-sulfonatopropyl)-1,2,3-tri-azol-4-yl]methoxy}phenyl)methoxy]silanediyl-29H,31H-silicon phthalocyanine [WB692-LB1]	–	–	692	12	–
2-[({5-[(1H-2,5-Dioxopyrrol-1-yl)pent-1-yl]amino]carbonylamino)}but-1-yn-yl)phenoxy]-29,31-bis[(3,4,5-tris{[1-(sodium 3-sulfonatopropyl)-1,2,3-triazol-4-yl]methoxy}-phenyl)methoxy]silanediyl-29H,31H-silicon tribenzophthalocyanine [WB795-CB1]	–	–	795	115	–
2-[({5-[(1H-2,5-Dioxopyrrol-1-yl)pent-1-yl]amino]carbonylamino)}but-1-yn-yl)phenoxy]-29,31-bis[(3,4,5-tris{[1-(sodium 3-sulfonatopropyl)-1,2,3-triazol-4-yl]methoxy}-phenyl)methoxyjsilanediyl-29H,31H-silicon phthalocyanine [WB692-CB2]	–	–	692	12	–
2-[({5-[(1H-2,5-Dioxopyrrol-1-yl)pent-1-yl]amino]carbonyloxy)}but-1-yn-yl)phenoxy]-29,31-bis[(3,4,5-tris{[1-(sodium 3-sulfonatopropyl)-1,2,3-triazol-4-yl]methoxy}-phenyl)methoxyjsilanediyl-29H,31H-silicon phthalocyanine [WB692-CB1]	–	692	692	12	remained alive
